How the values were obtained:
Assay in all cases: SelectScreen, TR FRET
NEK4 (human) = NEK4 (human) (UniProt P51957)
ITK (human) = ITK (human) (UniProt Q08881)
MAPK14 (human) = MAPK14 (human) (UniProt Q16539)
CDK2 CCNA2 (human) = CDK2 CCNA2 (human) (UniProt P24941+P20248)
KIT (human) = KIT (human) (UniProt P10721)
NTRK3 (human) = NTRK3 (human) (UniProt Q16288)
MAPK1 (human) = MAPK1 (human) (UniProt P28482)
CSF1R (human) = CSF1R (human) (UniProt P07333)
FGFR2 (human) = FGFR2 (human) (UniProt P21802)
SYK (human) = SYK (human) (UniProt P43405)
CDK9 CCNT1 (human) = CDK9 CCNT1 (human) (UniProt O60563+P50750)
MAPKAPK2 (human) = MAPKAPK2 (human) (UniProt P49137)
BTK (human) = BTK (human) (UniProt Q06187)
PRKCZ (human) = PRKCZ (human) (UniProt Q05513)
ZAP70 (human) = ZAP70 (human) (UniProt P43403)
IGF1R (human) = IGF1R (human) (UniProt P08069)
GRK6 (human) = GRK6 (human) (UniProt P43250)
ACVR1B (human) = ACVR1B (human) (UniProt P36896)
PKN1 (human) = PKN1 (human) (UniProt Q16512)
CLK2 (human) = CLK2 (human) (UniProt P49760)
PTK6 (human) = PTK6 (human) (UniProt Q13882)
CSNK2A1 (human) = CSNK2A1 (human) (UniProt P68400)
MAPK8 (human) = MAPK8 (human) (UniProt P45983)
BMX (human) = BMX (human) (UniProt P51813)
MAPK9 (human) = MAPK9 (human) (UniProt P45984)
JAK1 JH1 JH2 (human) = JAK1 JH1 JH2 (human) (UniProt P23458)
CDK5 CDK5R1 p25 (human) = CDK5 CDK5R1 p25 (human) (UniProt Q15078+Q00535)
IKBKE (human) = IKBKE (human) (UniProt Q14164)
IKBKE (human), sequence (Q14164 whole entry, looked up): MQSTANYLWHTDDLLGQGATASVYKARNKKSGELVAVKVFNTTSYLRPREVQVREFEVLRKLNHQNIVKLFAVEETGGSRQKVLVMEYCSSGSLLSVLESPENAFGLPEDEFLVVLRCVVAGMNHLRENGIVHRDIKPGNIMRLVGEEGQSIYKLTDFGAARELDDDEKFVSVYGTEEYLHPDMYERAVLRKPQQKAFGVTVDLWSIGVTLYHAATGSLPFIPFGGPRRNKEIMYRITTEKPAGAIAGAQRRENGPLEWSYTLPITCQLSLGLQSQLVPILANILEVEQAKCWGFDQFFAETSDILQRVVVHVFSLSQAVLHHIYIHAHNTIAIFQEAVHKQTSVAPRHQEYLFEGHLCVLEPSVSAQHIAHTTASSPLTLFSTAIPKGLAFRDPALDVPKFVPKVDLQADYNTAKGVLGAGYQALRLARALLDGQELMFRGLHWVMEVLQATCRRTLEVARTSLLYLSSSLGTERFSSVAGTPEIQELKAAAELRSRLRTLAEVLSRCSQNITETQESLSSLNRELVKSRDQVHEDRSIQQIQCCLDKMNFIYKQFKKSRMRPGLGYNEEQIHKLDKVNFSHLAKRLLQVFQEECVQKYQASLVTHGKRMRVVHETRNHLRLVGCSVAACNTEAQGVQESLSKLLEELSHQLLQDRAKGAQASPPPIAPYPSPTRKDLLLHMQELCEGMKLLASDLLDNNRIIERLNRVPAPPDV

BMX (human), sequence (P51813 whole entry, looked up): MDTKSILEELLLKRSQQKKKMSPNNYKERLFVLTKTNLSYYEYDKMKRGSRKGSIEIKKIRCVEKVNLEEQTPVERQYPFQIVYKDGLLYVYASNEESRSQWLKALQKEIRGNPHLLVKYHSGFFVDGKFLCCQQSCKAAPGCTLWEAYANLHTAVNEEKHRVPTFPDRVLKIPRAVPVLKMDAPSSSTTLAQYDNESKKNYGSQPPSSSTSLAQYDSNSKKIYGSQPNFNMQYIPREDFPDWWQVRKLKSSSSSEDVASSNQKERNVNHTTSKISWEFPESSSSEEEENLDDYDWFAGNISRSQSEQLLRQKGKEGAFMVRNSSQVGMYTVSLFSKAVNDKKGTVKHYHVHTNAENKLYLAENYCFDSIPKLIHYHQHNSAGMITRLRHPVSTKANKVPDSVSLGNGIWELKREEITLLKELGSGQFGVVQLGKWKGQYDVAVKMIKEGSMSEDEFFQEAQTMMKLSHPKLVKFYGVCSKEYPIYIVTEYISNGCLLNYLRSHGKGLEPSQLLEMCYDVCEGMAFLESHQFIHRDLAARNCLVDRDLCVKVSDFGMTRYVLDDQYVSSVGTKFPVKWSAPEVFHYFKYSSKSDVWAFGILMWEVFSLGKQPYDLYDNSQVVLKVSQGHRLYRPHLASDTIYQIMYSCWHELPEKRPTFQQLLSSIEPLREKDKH
MAPKAPK2 (human), sequence (P49137 whole entry, looked up): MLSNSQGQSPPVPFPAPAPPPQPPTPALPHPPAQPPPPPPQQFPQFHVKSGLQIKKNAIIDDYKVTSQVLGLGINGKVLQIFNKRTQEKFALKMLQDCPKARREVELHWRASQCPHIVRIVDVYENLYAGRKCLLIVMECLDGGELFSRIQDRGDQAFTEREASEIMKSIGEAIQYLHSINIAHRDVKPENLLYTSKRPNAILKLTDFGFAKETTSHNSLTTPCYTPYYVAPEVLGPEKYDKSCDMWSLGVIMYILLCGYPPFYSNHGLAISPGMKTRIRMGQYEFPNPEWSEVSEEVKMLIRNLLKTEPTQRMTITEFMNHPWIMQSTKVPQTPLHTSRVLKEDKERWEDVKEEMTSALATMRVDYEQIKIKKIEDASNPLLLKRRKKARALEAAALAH
NTRK3 (human), sequence (Q16288 whole entry, looked up): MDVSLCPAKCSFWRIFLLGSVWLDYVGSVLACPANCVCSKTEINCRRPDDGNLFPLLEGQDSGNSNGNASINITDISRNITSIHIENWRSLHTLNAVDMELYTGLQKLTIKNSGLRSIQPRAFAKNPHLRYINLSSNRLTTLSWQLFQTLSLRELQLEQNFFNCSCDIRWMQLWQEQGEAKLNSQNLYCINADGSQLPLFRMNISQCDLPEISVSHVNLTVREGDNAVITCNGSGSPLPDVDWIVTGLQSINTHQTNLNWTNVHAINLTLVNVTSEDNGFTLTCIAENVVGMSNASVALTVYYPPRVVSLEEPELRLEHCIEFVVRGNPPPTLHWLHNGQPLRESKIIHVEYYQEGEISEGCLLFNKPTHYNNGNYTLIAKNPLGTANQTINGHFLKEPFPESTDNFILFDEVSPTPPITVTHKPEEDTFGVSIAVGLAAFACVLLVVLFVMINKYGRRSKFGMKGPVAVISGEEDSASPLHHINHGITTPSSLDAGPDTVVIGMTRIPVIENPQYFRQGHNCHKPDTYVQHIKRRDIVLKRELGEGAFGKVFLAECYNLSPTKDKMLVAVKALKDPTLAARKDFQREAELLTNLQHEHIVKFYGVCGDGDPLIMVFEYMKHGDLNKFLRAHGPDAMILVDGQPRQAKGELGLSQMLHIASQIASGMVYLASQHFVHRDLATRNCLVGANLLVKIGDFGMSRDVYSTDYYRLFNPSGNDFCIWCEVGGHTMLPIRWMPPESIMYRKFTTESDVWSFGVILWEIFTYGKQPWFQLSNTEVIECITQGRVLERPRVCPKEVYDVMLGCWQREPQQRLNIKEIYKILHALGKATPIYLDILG
MAPK8 (human), sequence (P45983 whole entry, looked up): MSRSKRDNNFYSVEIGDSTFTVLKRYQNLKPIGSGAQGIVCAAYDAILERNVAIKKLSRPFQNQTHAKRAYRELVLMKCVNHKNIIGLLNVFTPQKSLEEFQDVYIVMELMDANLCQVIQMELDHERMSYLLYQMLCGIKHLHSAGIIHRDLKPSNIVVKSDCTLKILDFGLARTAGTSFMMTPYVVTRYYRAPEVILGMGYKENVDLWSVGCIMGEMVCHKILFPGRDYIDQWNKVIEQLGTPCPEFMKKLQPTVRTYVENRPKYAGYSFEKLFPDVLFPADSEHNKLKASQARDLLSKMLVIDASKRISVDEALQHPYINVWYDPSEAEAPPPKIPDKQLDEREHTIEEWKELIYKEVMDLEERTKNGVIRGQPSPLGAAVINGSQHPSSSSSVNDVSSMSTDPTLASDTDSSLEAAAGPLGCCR
PKN1 (human), sequence (Q16512 whole entry, looked up): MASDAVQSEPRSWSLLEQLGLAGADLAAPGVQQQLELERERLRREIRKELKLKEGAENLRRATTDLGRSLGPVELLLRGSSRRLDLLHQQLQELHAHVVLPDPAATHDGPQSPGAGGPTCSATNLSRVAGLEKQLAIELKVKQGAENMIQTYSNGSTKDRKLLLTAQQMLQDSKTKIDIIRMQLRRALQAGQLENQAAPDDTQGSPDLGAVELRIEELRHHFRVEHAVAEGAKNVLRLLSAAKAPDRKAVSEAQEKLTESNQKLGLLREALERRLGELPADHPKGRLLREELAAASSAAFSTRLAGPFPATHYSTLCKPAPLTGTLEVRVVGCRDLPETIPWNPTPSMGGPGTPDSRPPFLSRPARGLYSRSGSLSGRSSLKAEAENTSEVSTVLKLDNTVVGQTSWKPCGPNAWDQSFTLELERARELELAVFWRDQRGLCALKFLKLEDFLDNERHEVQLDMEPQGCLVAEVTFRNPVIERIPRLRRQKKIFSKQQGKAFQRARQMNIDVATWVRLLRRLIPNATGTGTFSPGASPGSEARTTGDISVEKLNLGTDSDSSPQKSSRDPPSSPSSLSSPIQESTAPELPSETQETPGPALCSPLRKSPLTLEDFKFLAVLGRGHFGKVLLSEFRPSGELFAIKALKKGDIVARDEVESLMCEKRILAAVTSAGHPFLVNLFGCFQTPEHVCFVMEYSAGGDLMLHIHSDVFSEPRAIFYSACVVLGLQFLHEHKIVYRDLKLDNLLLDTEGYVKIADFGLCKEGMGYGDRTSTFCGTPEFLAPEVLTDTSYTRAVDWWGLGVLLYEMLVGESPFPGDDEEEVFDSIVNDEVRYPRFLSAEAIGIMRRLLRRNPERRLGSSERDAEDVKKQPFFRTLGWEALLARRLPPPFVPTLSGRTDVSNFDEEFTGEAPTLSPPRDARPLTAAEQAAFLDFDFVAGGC
GRK6 (human), sequence (P43250 whole entry, looked up): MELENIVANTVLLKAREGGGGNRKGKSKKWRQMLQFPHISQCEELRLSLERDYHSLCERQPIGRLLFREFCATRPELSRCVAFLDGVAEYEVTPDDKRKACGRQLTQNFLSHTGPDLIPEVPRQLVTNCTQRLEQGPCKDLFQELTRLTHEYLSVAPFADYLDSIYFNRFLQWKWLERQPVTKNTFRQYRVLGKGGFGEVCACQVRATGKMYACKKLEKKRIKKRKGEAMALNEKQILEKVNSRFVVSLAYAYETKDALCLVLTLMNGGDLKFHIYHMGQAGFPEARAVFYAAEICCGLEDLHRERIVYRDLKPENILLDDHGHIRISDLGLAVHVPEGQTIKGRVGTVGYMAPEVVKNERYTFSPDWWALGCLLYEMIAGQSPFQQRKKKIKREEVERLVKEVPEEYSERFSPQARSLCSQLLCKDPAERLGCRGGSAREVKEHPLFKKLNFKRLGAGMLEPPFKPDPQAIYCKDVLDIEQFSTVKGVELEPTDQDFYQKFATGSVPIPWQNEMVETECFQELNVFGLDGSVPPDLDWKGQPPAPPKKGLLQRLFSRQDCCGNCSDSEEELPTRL
CDK2 CCNA2 (human), sequence (P20248 whole entry, looked up, other chains not shown): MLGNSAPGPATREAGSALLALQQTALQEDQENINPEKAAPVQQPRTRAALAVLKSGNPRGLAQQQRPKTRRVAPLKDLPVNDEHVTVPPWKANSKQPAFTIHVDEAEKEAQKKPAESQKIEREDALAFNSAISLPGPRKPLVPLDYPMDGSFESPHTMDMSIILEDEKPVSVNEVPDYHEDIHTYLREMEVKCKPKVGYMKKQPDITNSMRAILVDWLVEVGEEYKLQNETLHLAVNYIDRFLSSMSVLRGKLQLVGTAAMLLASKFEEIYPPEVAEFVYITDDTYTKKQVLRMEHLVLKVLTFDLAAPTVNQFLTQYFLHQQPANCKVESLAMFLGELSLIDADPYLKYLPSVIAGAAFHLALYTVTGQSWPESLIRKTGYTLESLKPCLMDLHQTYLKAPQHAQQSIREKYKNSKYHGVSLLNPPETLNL

## Cn1cc(-c2cnc3ccc4ccc(CC(=O)NCc5ccccn5)cc4c(=O)c3c2)cn1
NEK4 (human); compound 0.1 µM
  inhibition: 10.8%
NEK4 (human); compound 1.0 µM
  inhibition: 13.5%
NEK4 (human); compound 10.0 µM
  inhibition: 37.8%
ITK (human); compound 0.1 µM
  inhibition: 1.8%
ITK (human); compound 1.0 µM
  inhibition: 3.8%
ITK (human); compound 10.0 µM
  inhibition: 35.8%
MAPK14 (human); compound 0.1 µM
  inhibition: 17.9%
MAPK14 (human); compound 1.0 µM
  inhibition: 20.8%
MAPK14 (human); compound 10.0 µM
  inhibition: 20.1%
CDK2 CCNA2 (human); compound 0.1 µM
  inhibition: 17%
CDK2 CCNA2 (human); compound 1.0 µM
  inhibition: 18.6%
CDK2 CCNA2 (human); compound 10.0 µM
  inhibition: 18.3%
KIT (human); compound 0.1 µM
  inhibition: 9.7%
KIT (human); compound 1.0 µM
  inhibition: 13.2%
KIT (human); compound 10.0 µM
  inhibition: 48.1%
NTRK3 (human); compound 0.1 µM
  inhibition: 18.8%
NTRK3 (human); compound 1.0 µM
  inhibition: 34.5%
NTRK3 (human); compound 10.0 µM
  inhibition: 77.1%
MAPK1 (human); compound 0.1 µM
  inhibition: 12.7%
MAPK1 (human); compound 1.0 µM
  inhibition: 8.8%
MAPK1 (human); compound 10.0 µM
  inhibition: -8.1%
CSF1R (human); compound 0.1 µM
  inhibition: 15.7%
CSF1R (human); compound 1.0 µM
  inhibition: 25.8%
CSF1R (human); compound 10.0 µM
  inhibition: 58.3%
FGFR2 (human); compound 0.1 µM
  inhibition: 14.2%
FGFR2 (human); compound 1.0 µM
  inhibition: 33.5%
FGFR2 (human); compound 10.0 µM
  inhibition: 74%
SYK (human); compound 0.1 µM
  inhibition: 19.9%
SYK (human); compound 1.0 µM
  inhibition: 13.2%
SYK (human); compound 10.0 µM
  inhibition: 61.6%
CDK9 CCNT1 (human); compound 0.1 µM
  inhibition: 9.4%
CDK9 CCNT1 (human); compound 1.0 µM
  inhibition: 4.4%
CDK9 CCNT1 (human); compound 10.0 µM
  inhibition: 10.8%
MAPKAPK2 (human); compound 0.1 µM
  inhibition: 9.5%
MAPKAPK2 (human); compound 1.0 µM
  inhibition: 7.8%
MAPKAPK2 (human); compound 10.0 µM
  inhibition: 19.8%
BTK (human); compound 0.1 µM
  inhibition: 10.9%
BTK (human); compound 1.0 µM
  inhibition: 13.4%
BTK (human); compound 10.0 µM
  inhibition: 15.4%
PRKCZ (human); compound 0.1 µM
  inhibition: 9.2%
PRKCZ (human); compound 1.0 µM
  inhibition: 9.9%
PRKCZ (human); compound 10.0 µM
  inhibition: 6.9%
ZAP70 (human); compound 0.1 µM
  inhibition: 18.4%
ZAP70 (human); compound 1.0 µM
  inhibition: 17.4%
ZAP70 (human); compound 10.0 µM
  inhibition: 15.2%
IGF1R (human); compound 0.1 µM
  inhibition: 16.4%
IGF1R (human); compound 1.0 µM
  inhibition: 15.3%
IGF1R (human); compound 10.0 µM
  inhibition: 16.7%
GRK6 (human); compound 0.1 µM
  inhibition: 5.6%
GRK6 (human); compound 1.0 µM
  inhibition: 7%
GRK6 (human); compound 10.0 µM
  inhibition: 13.4%
ACVR1B (human); compound 0.1 µM
  inhibition: 12.8%
ACVR1B (human); compound 1.0 µM
  inhibition: 12.6%
ACVR1B (human); compound 10.0 µM
  inhibition: 10.1%
PKN1 (human); compound 0.1 µM
  inhibition: 12.2%
PKN1 (human); compound 1.0 µM
  inhibition: 13.6%
PKN1 (human); compound 10.0 µM
  inhibition: -14.2%
CLK2 (human); compound 0.1 µM
  inhibition: 9.2%
CLK2 (human); compound 1.0 µM
  inhibition: 22.8%
CLK2 (human); compound 10.0 µM
  inhibition: 69.8%
PTK6 (human); compound 0.1 µM
  inhibition: 9.2%
PTK6 (human); compound 1.0 µM
  inhibition: 12.5%
PTK6 (human); compound 10.0 µM
  inhibition: 39.1%
CSNK2A1 (human); compound 0.1 µM
  inhibition: 8.2%
CSNK2A1 (human); compound 1.0 µM
  inhibition: 9.2%
CSNK2A1 (human); compound 10.0 µM
  inhibition: 10.2%
MAPK8 (human); compound 0.1 µM
  inhibition: 2.8%
MAPK8 (human); compound 1.0 µM
  inhibition: 0.1%
MAPK8 (human); compound 10.0 µM
  inhibition: 6.2%
BMX (human); compound 0.1 µM
  inhibition: 7.2%
BMX (human); compound 1.0 µM
  inhibition: 7.7%
BMX (human); compound 10.0 µM
  inhibition: -77.3%
MAPK9 (human); compound 0.1 µM
  inhibition: -1.5%
MAPK9 (human); compound 1.0 µM
  inhibition: 3.7%
MAPK9 (human); compound 10.0 µM
  inhibition: 10.8%
JAK1 JH1 JH2 (human); compound 0.1 µM
  inhibition: 7.6%
JAK1 JH1 JH2 (human); compound 1.0 µM
  inhibition: 12.3%
JAK1 JH1 JH2 (human); compound 10.0 µM
  inhibition: 9.4%
CDK5 CDK5R1 p25 (human); compound 0.1 µM
  inhibition: 6.6%
CDK5 CDK5R1 p25 (human); compound 1.0 µM
  inhibition: 6.7%
CDK5 CDK5R1 p25 (human); compound 10.0 µM
  inhibition: 14.5%
IKBKE (human); compound 0.1 µM
  inhibition: 7.5%
IKBKE (human); compound 1.0 µM
  inhibition: 7%
IKBKE (human); compound 10.0 µM
  inhibition: 8.6%
